Assay results taken from PubChem BioAssay (NCI).
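Following 48 hours of exposure in 96-well plates, responses at five concentrations were used to interpolate endpoints linearly. GI50 is the concentration that inhibits growth by half. TGI: concentration producing complete growth inhibition.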

Key:
Assay in all cases: inhibition of tumour cell growth, NCI panel, 48 h
SK-OV-3 ovarian = tested on: SK-OV-3 ovarian
UO-31 renal = tested on: UO-31 renal
SNB-19 CNS = tested on: SNB-19 CNS
HCT-116 colon = tested on: HCT-116 colon
CCRF-CEM leukemia = tested on: CCRF-CEM leukemia
SW-620 colon = tested on: SW-620 colon
MDA-MB-435 = tested on: MDA-MB-435
NCI-H522 lung = tested on: NCI-H522 lung
NCI-H23 lung = tested on: NCI-H23 lung
SK-MEL-28 melanoma = tested on: SK-MEL-28 melanoma

| Compound | GI50 (SK-OV-3 ovarian) [µM] | TGI (SK-OV-3 ovarian) [µM] | GI50 (UO-31 renal) [nM] | TGI (UO-31 renal) [µM] | GI50 (SNB-19 CNS) [µM] | TGI (SNB-19 CNS) [µM] | GI50 (HCT-116 colon) [µM] | TGI (HCT-116 colon) [µM] | GI50 (CCRF-CEM leukemia) [µM] | TGI (CCRF-CEM leukemia) [µM] | GI50 (SW-620 colon) [µM] | TGI (SW-620 colon) [µM] | GI50 (MDA-MB-435) [µM] | TGI (MDA-MB-435) [µM] | GI50 (NCI-H522 lung) [nM] | TGI (NCI-H522 lung) [µM] | GI50 (NCI-H23 lung) [µM] | TGI (NCI-H23 lung) [µM] | GI50 (SK-MEL-28 melanoma) [µM] | TGI (SK-MEL-28 melanoma) [µM] |
| --- | --- | --- | --- | --- | --- | --- | --- | --- | --- | --- | --- | --- | --- | --- | --- | --- | --- | --- | --- | --- |
| Clc1nc(Cl)c2ncn(-c3ccccc3)c2n1 | 12.5 | 25 | 1630 | 3.13 | 10.7 | 23.9 | 2 | 4.69 | 2.7 | 6.55 | 2.08 | 5.74 | 3.32 | 13.2 | 1900 | 5.09 | 2.14 | 4.84 | 4.69 | 17.3 |
| CC(=O)OC1C(O)C(C)OC(OC2C(OC(=O)C3CCC4C(C3)OC3(CC(OC(=O)/C=C/c5ccccc5)C(C)CO3)C43CO3)OC(C)C(O)C2OC(C)=O)C1O (configuration not stated) |  | 0.0928 |  | 1.6 |  | 0.0316 |  | 0.0785 |  | 0.084 |  | 0.184 |  | 0.00649 |  | 0.0156 |  | 0.0615 |  | 0.0305 |
| Cn1c2c(c3ccccc31)CCN1C[C@@H]3CCCC[C@H]3C[C@@H]21 | 2.82 | 25.6 | 2200 | 13.7 | 5.15 | > 100 | 3.19 | > 31.2 | 4.77 | > 100 | 3.43 | > 100 | 1.56 | > 20.6 | 1740 | 4.44 | 3.55 | > 100 | 6.03 | > 100 |
| N#CC1=C(N)N=C(N2CCOCC2)C(C#N)C12Nc1ccccc1S2 (configuration not stated) | 24.1 | > 100 | 16400 | 61.4 | 33.8 | > 100 | 35.4 | > 100 |  |  | 23.2 | > 100 | 22.9 | 61.1 | 17600 | 51.5 |  |  |  |  |
| COc1ccc(C2=C(c3ccccc3)C(=O)N3CCCC3C2)cc1 (configuration not stated) | > 100 | > 100 | 2930 | > 100 | 8.01 | > 100 | 0.0817 | > 100 | 1.79 | > 100 | 1.24 | > 100 | 5.32 | > 100 | 821 | > 100 | > 32.3 | > 100 | > 62.5 | > 100 |
| Cc1[nH]c(=O)n2c(C)nnc2c1C(=O)O |  | > 100 |  | > 100 |  |  |  | > 100 |  | > 100 |  | > 100 |  |  |  | > 100 |  | > 100 |  | > 100 |
| O=C(O)CN1C(=O)OC(c2ccccc2)C1=O (configuration not stated) |  | > 100 |  | > 100 |  | > 100 |  | > 100 |  | > 100 |  | > 100 |  | > 100 |  | > 100 |  | > 100 |  | > 100 |
| CC(C)[C@@]12C[C@@H](OC(=O)COC(=O)c3ccccc3)[C@@](C)(O1)[C@@H]1CC[C@@H](C)[C@H]1[C@@H]2OC(=O)/C=C/c1ccccc1 | > 100 | > 100 | 115 | 1.66 | > 100 | > 100 | > 100 | > 100 | > 100 | > 100 | > 100 | > 100 | > 100 | > 100 | > 100000 | > 100 | > 100 | > 100 | > 100 | > 100 |
| O=C1NC(c2ccc3ccccc3c2)Nc2ccccc21 (configuration not stated) |  | > 100 |  | > 100 |  | > 100 |  | > 100 |  | > 100 |  | > 100 |  | 50.7 |  |  |  | > 100 |  | > 100 |
| CC1=C2CC[C@@]3(C)C(=CCC3O)C2(C)CCC1=O (some centres not stated) |  | > 100 |  | > 100 |  | > 100 |  | > 100 |  | > 100 |  | > 100 |  |  |  | > 100 |  |  |  | > 100 |
| c1cc2c(cc1C1OCC3C(c4ccc5c(c4)OCO5)OCC13)OCO2 (configuration not stated) |  | > 100 |  | > 100 |  | > 100 |  | > 100 |  | > 100 |  | > 100 |  |  |  | > 100 |  | > 100 |  | > 100 |
| CC[O-].CC[O-].O=C1C=C([O-])C(=O)c2ccccc21.O=C1C=C([O-])C(=O)c2ccccc21.[Ti+4] | > 100 | > 100 | > 86100 | > 100 | > 84.5 | > 100 | 43.2 | > 100 | > 100 | > 100 | 90.5 | > 100 |  |  | > 40100 | > 100 | 4.43 | > 100 | > 100 | > 100 |
| O=C(Cc1cc(O)ccc1O)NO | > 100 | > 100 | > 100000 | > 100 | 31.2 | > 100 | 18 | 32.4 | 22.3 | 48.6 | 25.1 | 54.1 | 15.4 | 31.2 | 91700 | > 100 | > 100 | > 100 |  |  |
| c1ccc2cc(C3NCCc4[nH]cnc43)ccc2c1 (configuration not stated) |  | > 100 |  | > 100 |  |  |  | > 100 |  | 91.6 |  | > 100 |  |  |  | > 100 |  | > 100 |  | > 100 |
| O=C1CCc2cc(Br)ccc2O1 |  |  |  |  |  | > 100 |  | > 100 |  | > 100 |  | > 100 |  | > 100 |  | > 100 |  | > 100 |  | > 100 |
| O=C(/C=C(/C=C/c1cccc2[nH]ccc12)OB(F)F)/C=C/c1cccc2[nH]ccc12 | 2.19 | 5.77 |  |  | 1.44 | 4.16 | 0.277 | 0.951 | 0.324 |  | 0.393 | 1.58 | 0.475 | 2.55 | 359 | 2.24 | 0.838 | 3.92 | 1.04 | 2.73 |
